# Test results reported in publication PMC5874716, “Antimicrobial Peptides for Topical Treatment of Osteomyelitis and Implant-Related Infections: Study in the Spongy Bone” (Pharmaceuticals, 2018).
# Non-standard residues stand in square brackets, D forms with d. Residues, ends and D or L forms follow the SMILES beside them. βAla = NCCC(=O)O
# Key:
# [1] = test system: C. albicans ATCC MYA-2876; assay: Biofilm formation on bone cement (Palacos r) model implants in infected femur head; set-up: species or system Candida albicans; settings: microbes infiltrated from a hole between implants, 2 days, single experiment
# Description: (§1) The poly(methyl methacrylate)-based bone cement with or without AMPs was implanted either inside infected holes or inside non-infected holes. In the latter case, the microbes infiltrated towards the implant from a hole made between them at roughly equal distance from each (Figure 3). This would simulate the authentic situation in which the pathogens can infect an orthopaedic implant by spreading through the bloodstream or contiguously from areas of infection. We evaluated the experiments on the basis of the amounts of microbes released from the biofilms supposedly formed on the surfaces of the implants that were removed from the infected bone samples.
# (§2) The bone samples with bored holes inside were prepared and handled as above. The bone cement (Palacos®r, Hereaus Medical GmbH, Wehrheim, Germany) with AMP incorporated was prepared by swift and thorough mixing of the polymer powder component (poly-methylacrylate, methyl methacrylate, 125 mg) and AMP (10 mg) or antibiotic (10 mg) with the liquid monomer (methyl methacrylate, N,N-dimethyl-p-toluidine, hydroquinone and colorant E141, 70 μL). The resulting elastic paste was pressed using a 2 mL plastic syringe into two bored holes, where it polymerized and solidified. The paste without peptide for filling of the remaining two holes was prepared similarly by mixing the powder component (125 mg) and liquid component (68 μL). […]
# Candida albicans = format: cell-based; settings: Bioscreen C; at least three times in duplicates
# Experimental: (§3) Femur heads (ca. 70 pieces) taken from patients during hip replacement surgery were periodically purchased in the period between 2014–2017 as discarded from the bone tissue bank at University Hospital in Motol, Prague, Czech Republic. The reason for the replacements by artificial prosthesis was the worn out cartilage on the surface of their heads. Bone samples were stored at −80 °C under standard conditions of certified tissue banks. In the laboratory, they were kept at +5 °C overnight and then at room temperature for several hours before they could be used for the experiments. The experiments with this material were approved by the Ethics Committee for Multi-Centric Clinical Trials of the University Hospital Motol, Reference No: EK-655/15. Methicillin-resistant S. aureus (MRSA 6271) ATCC 43300 and P. aeruginosa (5482) ATCC 27853 were purchased from the Czech National Collection of Type Cultures, National Institute of Public Health, Prague, Czech Republic. Methicillin-resistant S. aureus (MRSA (L)) and P. aeruginosa (L) were obtained as multi-resistant clinical isolates from Liberec Regional Hospital, Liberec, Czech Republic. Methicillin-resistant S. aureus (MRSA (M)), E. faecalis and S. epidermidis were obtained as clinical isolates from University Hospital in Motol, Prague. Candida albicans (F7-39/IDE99) came from the mycological collection of the Faculty of Medicine, Palacky University, Olomouc, Czech Republic. C. albicans ATCC MYA-2876, C. tropicalis ATCC 750 and C. glabrata DSY565 were kindly provided by Dr. Hana Sychrová from the Institute of Physiology, Academy of Sciences of the Czech Republic, Prague. Vancomycin hydrochloride, gentamicin sulfate, ceftriaxone disodium salt, amphotericin B, fluconazole, and clotrimazole were obtained from Sigma-Aldrich, Prague, Czech Republic.
# (§4) MIC values for peptides were established by observing growth of treated bacteria in HONEYCOMB 100-well microtiter plates (Helsinki, Finland) using a Bioscreen C instrument (Oy Growth Curves, Helsinki, Finland) as previously described. Haemolytic activity of peptides expressed as the concentration of a peptide required for lysis of 50% of human erythrocytes in the assay (LC50) was measured using a Tecan infinite M200 PRO reader (Tecan Austria GmbH, Grödig, Austria). Blood samples for determining haemolytic activity were obtained from healthy volunteers.
# [2] = test system: E. faecalis clinical isolate (Motol); assay: microbe, parasite or virus in culture; format: cell-based; settings: clinical isolate Motol; Bioscreen C; at least three times in duplicates
# Experimental: as §3, §4
# [3] = test system: P. aeruginosa (5482) ATCC 27853; assay: microbe, parasite or virus in culture; format: cell-based; settings: Bioscreen C; at least three times in duplicates
# Experimental: as §3, §4
# [4] = test system: MRSA clinical isolate from Liberec Regional Hospital (MRSA (L)); assay: microbe, parasite or virus in culture; format: cell-based; settings: clinical isolate Liberec; Bioscreen C; at least three times in duplicates
# Experimental: as §3, §4
# MRSA 6271 (ATCC 43300) = assay: microbe, parasite or virus in culture; format: cell-based; settings: growth in 100-well microtiter plates, Bioscreen C; tested at least three times in duplicates
# Experimental: as §3, §4
# [5] = test system: S. epidermidis clinical isolate (Motol); assay: microbe, parasite or virus in culture; format: cell-based; settings: clinical isolate Motol; Bioscreen C; at least three times in duplicates
# Experimental: as §3, §4
# [6] = test system: P. aeruginosa clinical isolate from Liberec Regional Hospital; assay: microbe, parasite or virus in culture; format: cell-based; settings: clinical isolate Liberec; Bioscreen C; at least three times in duplicates
# Experimental: as §3, §4
# [7] = test system: MRSA clinical isolate from University Hospital in Motol (MRSA (M)); assay: microbe, parasite or virus in culture; format: cell-based; settings: clinical isolate Motol; Bioscreen C; at least three times in duplicates
# Experimental: as §3, §4
# C. glabrata DSY565 = assay: Biofilm formation on bone cement (Palacos r) model implants in infected femur head; set-up: species or system Candida glabrata; settings: microbes infiltrated from a hole between implants; 2 days; single experiment
# Description: as §1, §2
# human erythrocytes = assay: Haemolysis assay; format: cell-based; settings: concentration causing lysis of 50% of human red blood cells; at least three times in duplicates
# Experimental: as §4
# P. aeruginosa 5482 = assay: Experimental model of bone infection (human femur head, ChronOS Inject carrier); set-up: species or system Pseudomonas aeruginosa; settings: ChronOS Inject 200 mg blended with 10 mg peptide; 2 days at room temperature; single experiment on one femoral head
# Experimental: We usually drilled three to four holes into the spongy part of each bone sample (as space allowed) and then filled the holes with the suspension of microbes (Figure 1a). The next day, the foci of the infection set up in the holes were treated (i) with carrier alone as a control, (ii) with carrier blended with AMP, or (iii) in some cases with a carrier blended with an antibiotic for comparison (Figure 1b). The results of infection eradication were evaluated after two days by counting the bacterial colonies (Figures S1–S3 as illustrative examples) found in the swab taken from each hole after the fillings were removed (Figure 1c).
# Three to four holes ca 4 mm in diameter and 8 mm deep were drilled using a surgical spoon at the side of the resection into the spongy part of the femur head. This bone was placed into a beaker cushioned with sterile gauze, which was then drenched with sterile physiological solution. The suspension of selected bacteria (S. aureus, S. epidermidis, P. aeruginosa) in the concentration of 10^9 colony forming units (CFU)/mL in Luria Bertani (LB) medium and E. faecalis in brain-heart infusion (BHI) medium was consecutively infused into each hole in the bone while taking care not to overfill the holes (Figure 1a). […] Following overnight incubation, the numbers of bacterial colonies were counted. The bacterial load was expressed as CFU per hole. […]
# Micrococcus luteus = assay: Drop diffusion test; format: cell-based; settings: RP-HPLC peak of bone marrow extract containing the three defensins; not shown
# Description: In several cases when an all-D isomeric peptide alone, or in combination with its parent L-isomer in a 1:4 ratio in the blend with the carrier were applied to the infected hole, we observed a zero microbial count. We suppose that the contribution of D-isomeric peptides (II, VII, X, XII) to bacterial eradication was due to their resistance to proteases either exerted by bacteria or originated from the cells of the bone tissue. In these cases, we detected intact all-D peptide in the extract of the fillings (recovered from the infected hole after completing the experiment) by Reversed-Phase (RP)-HPLC analysis (not shown). On the other hand, the RP-HPLC analyses of the extracts of the fillings containing solely L-peptides indicated partial to complete digestion of peptides by proteases. Nevertheless, we assume that in all cases presented in Table 3 and Figure 2, it was the fast killing effect of AMPs on bacteria that played a conclusive role in eradicating the infection in the bone samples. When carrying out the experiments, we had to take into account that the bacterial load in an infected hole also could be reduced by components of the bone marrow immune system, including blood cells such as neutrophils. […] In one of the RP-HPLC peaks, we detected by mass spectrometry the presence of three human α-defensins HNP1, HNP2, and HNP3 [32] […]
Compound,"CFU/Implant, C. albicans c [1]","Antimicrobial Activity MIC, C. a. (Candida albicans)","Antimicrobial Activity MIC, E. f. b [2]","Antimicrobial Activity MIC, P. a. 5482 [3]","Antimicrobial Activity MIC, MRSA a [4]","Antimicrobial Activity MIC, MRSA 6271 (MRSA 6271 (ATCC 43300))","Antimicrobial Activity MIC, S. e. b [5]","Antimicrobial Activity MIC, P. a. a [6]","Antimicrobial Activity MIC, MRSA b [7]","CFU/Implant, C. glabrata (C. glabrata DSY565)",Haemolytic Activity LC50 (human erythrocytes),"Colony Forming Units (CFU)/Hole, P. a. 5482 (P. aeruginosa 5482)",antimicrobial activity in drop diffusion tests (Micrococcus luteus)
"OC(Cn1cncn1)(Cn1cncn1)c1ccc(F)cc1F [Fluconazole, fluconazole, reference compound]",3.6 × 10^4 CFU/implant,–,–,–,–,–,–,–,–,–,–,–,–
CC[C@H](C)[C@H](NC(=O)[C@H](CCCCN)NC(=O)[C@H](CCCCN)NC(=O)[C@@H](CC(C)C)NC(=O)[C@H](CC(C)C)NC(=O)[C@H](CCCCN)NC(=O)[C@H](CCSC)NC(=O)[C@H](Cc1c[nH]c2ccccc12)NC(=O)[C@H](CCCCN)NC(=O)CN)C(=O)N[C@@H](CC(C)C)C(=O)N[C@@H](CCCCN)C(N)=O [VIII] (H-GKWMKL[dL]KKILK-NH2; N-terminus assumed),6.0 × 10^3 CFU/implant,8.0 µmol/L,>100 µmol/L,5.0 µmol/L,13.3 µmol/L,18.7 µmol/L,4.0 µmol/L,32.0 µmol/L,32.0 µmol/L,2.4 × 10^3 CFU/implant,>400 µmol/L,–,–
CC[C@H](C)[C@H](NC(=O)[C@H](CCCCN)NC(=O)[C@H](CCCCN)NC(=O)[C@H](CC(C)C)NC(=O)[C@H](CC(C)C)NC(=O)[C@H](CCCCN)NC(=O)[C@H](CCSC)NC(=O)[C@H](Cc1c[nH]c2ccccc12)NC(=O)[C@H](CCCCN)NC(=O)CCN)C(=O)N[C@@H](CC(C)C)C(=O)N[C@@H](CCCCN)C(N)=O [XI] (H-[βAla]KWMKLLKKILK-NH2; N-terminus assumed),–,11.3 µmol/L,59.0 µmol/L,2.8 µmol/L,5.7 µmol/L,11.3 µmol/L,2.8 µmol/L,7.0 µmol/L,10.0 µmol/L,–,270 µmol/L,2.0 × 10^5 CFU/hole,–
"CYCRIPACIAGERRYGTCIYQGRLWAFCC [HNP2, human α-defensin detected in bone marrow extract of the femur head]",–,–,–,–,–,–,–,–,–,–,–,–,exhibited antimicrobial activity
"Clc1ccccc1C(c1ccccc1)(c1ccccc1)n1ccnc1 [Clotrimazole, clotrimazole, reference compound]",–,–,–,–,–,–,–,–,–,1.2 × 10^6 CFU/implant,–,–,–
